In patent US9661856B1, “Synergy of plant antimicrobials with silver” (The Arizona Board of Regents on behalf of the University of …, priority 2012, dated 2017):

Legend:
[1] = tested on: Escherichia coli strain 25922; assay: Reduction of Escherichia coli in PBS after exposure to plant antimicrobials with and without silver (spread plate count); format: cell-based; details: for effect of combination with silver ions on antimicrobial activity against E. coli: plant antimicrobial combined with silver ions in solution; for reduction with silver alone treatment (in words): 100 ppb silver alone, within 30 min of exposure
Method: Escherichia coli strain 25922 was obtained from the American Type Culture Collection (ATCC; Manassas, Va., USA) and was maintained on Tryptic Soy Agar (TSA; Difco, Sparks, Md., USA) with incubation for 18 to 24 h at 37° C. Prior to the start of each experiment, an Erlenmeyer flask containing 100 ml of Tryptic Soy Broth (TSB; Difco, Sparks, Md., USA) was inoculated with the organism and incubated on an orbital shaker (Model […]; New Brunswick Scientific, Edison, N.J., USA) at 300 rpm at 37° C. overnight. […] Beckman Coulter, Inc., Fullerton, Calif., USA). The pelleted cells were washed by re-suspension in 100 ml of physiological saline (0.85% NaCl) followed by centrifugation as described previously. This step was repeated one additional time. The final pellet was resuspended in 10 ml of sterile phosphate buffered saline (PBS; pH 7.4; Sigma-Aldrich, St. Louis, Mo., USA). […] A stock solution of silver (Ag) ions was prepared immediately prior to the start of each experiment by adding AgNO3 (J.T. Baker, Phillipsburg, N.Y., USA) to distilled water to obtain an Ag ion concentration of 100 mg/l (100 ppm). The Ag concentration was measured at the beginning of each experiment by a colorimetric procedure using a Hach DR/2000 spectrophotometer (Anonymous 1989). […] (Berkley, Calif., USA). […] Louis, Mo., USA). The plant antimicrobials were dissolved and diluted (volume to volume) to specific test concentrations using PBS. […] A control with E. coli in PBS but no added antimicrobials was also included. Purified stocks of the bacteria were added separately to the antimicrobial solutions (final concentration of […]) and the flasks were placed on an orbital shaker (300 rpm) for the duration of the experiment. Experiments were performed in triplicate at room temperature (24° C.) in 50 ml polypropylene conical tubes (Becton, Dickinson and Company, Franklin Lakes, N.J., USA). At predetermined time intervals, 100 μl samples were collected and neutralized with Dey Engley (D/E) neutralizing broth (Difco, Sparks, Md., USA) at a ratio of 1:10. The D/E is neutralizes the antimicrobial effect of silver whereas the plant antimicrobials are neutralized via dilution. Samples were assayed for bacterial enumeration immediately. Bacterial samples were ten-fold serially diluted in physiological saline as needed and the surviving bacteria were enumerated using the spread plate method on duplicate plates of Levine Eosin Methylene Blue Agar (EMB; Becton, Dickinson and Company, Franklin Lakes, N.J., USA). The plates were incubated at 37° C. for 24 hours and the surviving bacterial colonies were counted. Data were reported as logarithmic reduction using the formula […], where N0 was the concentration of E. coli at time zero and Nt was the surviving concentration at time t. A Student's t-test was used to determine if there were significant differences between the control and the antimicrobial treatments (the reductions were compared to the control after 30 min) or between the various treatments (for each exposure time).

[2] = humans; based on epidemiological and pharmacokinetic data (WHO); cited from earlier work

In the case of `O=C/C=C/c1ccccc1` [Cinnamaldehyde], the “exposure time within which the reduction was statistically significant (P≦0.05) compared to the control” value ([1]; 0.05% citral, 0.02% carvacrol or 0.1% cinnamaldehyde, alone or with 100 ppb Ag, PBS) is reported as at most 20 min, the “Reduction (Log10 ± standard deviation) in the population of Escherichia coli” value (from here on “Reduction (Log10 ± standard deviation)”) ([1]; Table 3, 1 min, 0.1% cinnamaldehyde (vol/vol), silver 100 ppb, PBS, inoculum 2.1 × 10^7 CFU/ml) is reported as 0.05 ± 0.04 Log10 and the “Reduction (Log10 ± standard deviation)” value ([1]; Table 3, 5 min, 0.1% cinnamaldehyde (vol/vol), silver 100 ppb, PBS, inoculum 2.1 × 10^7 CFU/ml) is reported as 0.18 ± 0.04 Log10. For the same compound, the “Reduction (Log10 ± standard deviation)” value ([1]; Table 3, 10 min, 0.1% cinnamaldehyde (vol/vol), silver 100 ppb, PBS, inoculum 2.1 × 10^7 CFU/ml) was 0.17 ± 0.07 Log10, the “Reduction (Log10 ± standard deviation)” value ([1]; Table 6, cinnamaldehyde 0.1% (vol/vol) in PBS, 1 min, inoculum 2.1 × 10^7 CFU/ml) was 0.05 ± 0.04 Log10 and the “effect of combination with silver ions on antimicrobial activity against E. coli” value (shortened to “effect of combination with silver ions”) [1] was “enhanced or synergistic”.
In the case of `[Ag+]` [Silver], the “No Observable Adverse Effect Level (NOAEL), lifetime limit of silver” value [2] is listed as 10 g, the “reduction with silver alone treatment (in words)” value [1] is listed as “no reductions were observed” and the “reduction with silver alone treatment (in words)” value ([1]; listed as Ag) is listed as “No significant reductions”. For the same compound, the “Reduction (Log10 ± standard deviation)” value ([1]; Table 1, 30 min, 0.05% citral (vol/vol), silver 100 ppb, PBS, inoculum 1.7 × 10^7 CFU/ml) was 0.01 ± 0.04 Log10, the “Reduction (Log10 ± standard deviation)” value ([1]; Table 2, 5 min, 0.02% carvacrol (vol/vol), silver 100 ppb, PBS, inoculum 2.9 × 10^7 CFU/ml) was 0.08 ± 0.12 Log10 and the “Reduction (Log10 ± standard deviation)” value ([1]; Table 2, 10 min, 0.02% carvacrol (vol/vol), silver 100 ppb, PBS, inoculum 2.9 × 10^7 CFU/ml) was 0.00 ± 0.06 Log10. The “Reduction (Log10 ± standard deviation)” value ([1]; Table 2, 30 min, 0.02% carvacrol (vol/vol), silver 100 ppb, PBS, inoculum 2.9 × 10^7 CFU/ml) was 0.00 ± 0.04 Log10, the “Reduction (Log10 ± standard deviation)” value ([1]; Table 3, 30 min, 0.1% cinnamaldehyde (vol/vol), silver 100 ppb, PBS, inoculum 2.1 × 10^7 CFU/ml) was 0.12 ± 0.10 Log10 and the “Reduction (Log10 ± standard deviation)” value ([1]; Table 4, 1 min, 0.5% allspice oil (vol/vol), silver 100 ppb, PBS, inoculum 6.6 × 10^6 CFU/ml) was 0.00 ± 0.03 Log10. The “Reduction (Log10 ± standard deviation)” value ([1]; Table 4, 5 min, 0.5% allspice oil (vol/vol), silver 100 ppb, PBS, inoculum 6.6 × 10^6 CFU/ml) was 0.00 ± 0.08 Log10, the “Reduction (Log10 ± standard deviation)” value ([1]; Table 4, 10 min, 0.5% allspice oil (vol/vol), silver 100 ppb, PBS, inoculum 6.6 × 10^6 CFU/ml) was 0.00 ± 0.12 Log10 and the “Reduction (Log10 ± standard deviation)” value ([1]; Table 4, 20 min, 0.5% allspice oil (vol/vol), silver 100 ppb, PBS, inoculum 6.6 × 10^6 CFU/ml) was 0.00 ± 0.23 Log10. The “Reduction (Log10 ± standard deviation)” value ([1]; Table 4, 30 min, 0.5% allspice oil (vol/vol), silver 100 ppb, PBS, inoculum 6.6 × 10^6 CFU/ml) was 0.29 ± 0.32 Log10.
With `Cc1ccc(C(C)C)cc1O` [Carvacrol, carvacrol] the “effect of combination with silver ions” value [1] was “enhanced or synergistic”.
For `CC(C)=CCCC(C)=CC=O` [Citral], the “Reduction (Log10 ± standard deviation)” value ([1]; Table 1, 1 min, 0.05% citral (vol/vol), silver 100 ppb, PBS, inoculum 1.7 × 10^7 CFU/ml) was 0.06 ± 0.03 Log10 and the “effect of combination with silver ions” value [1] was “enhanced or synergistic”.
